# US20160367622A1, “AGONISTS OF GUANYLATE CYCLASE USEFUL FOR THE TREATMENT OF OPIOID INDUCED DYSFUNCTIONS” (priority 2013, published 2016)
# “Also recorded” adds a separate entry of the source. Read-outs that look alike come from different tables or passages of the source. Positions of bridges follow the written chain, without caps; N, C: chain ends. Non-standard residues stand in square brackets, D forms with d. Residues, ends and D or L forms follow the SMILES beside them.
# Columns and labels:
# [1] = tested on: patients with symptoms of OIC treated for non-malignant chronic pain with opioid therapy; experiment: randomized 4-week placebo-controlled dose-ranging study in OIC: efficacy; assay type: in vivo, human; details: for Week 4 change from baseline in SBMs, LS Mean (SE) / Week 4 change from baseline in SBMs, Mean (SD): observed cases, mITT population
# From the text: (§1) A Randomized, 4-Week, Double-Blind, Placebo-Controlled, Dose-Ranging Study to Assess the Safety and Efficacy of Sp-333 for the Treatment of Opioid-Induced Constipation (OIC) in Patients with Non-Malignant Chronic Pain Receiving Opioid Therapy
# To evaluate the clinical efficacy of SP-333 compared with placebo, in patients with symptoms of OIC who have been treated for non-malignant chronic pain with opioid therapy.
# (§2) The primary efficacy endpoint was to determine the mean change from baseline in the number of […] (SBMs) during Week 4 of the Treatment Period. Safety was assessed by analysis of the frequency of treatment-emergent adverse events (TEAEs), adverse events leading to withdrawal, and serious adverse events (SAEs).
# [2] = tested on: female Sprague-Dawley rats; experiment: methadone-induced delay in rat GI transit (charcoal meal); assay type: in vivo; details: 2.5 mg/kg methadone IP
# Method: Animals: All study procedures were conducted under a study outline approved by the Institutional Animal Care and Use Committee of MB Research Labs (Spinnerstown, Pa.) or Lampire Biological Laboratories (Pipersville, Pa.). Seven to eight week old female Sprague-Dawley rats [Crl:CD(SD)], weighing between ˜180-210 grams, were obtained from Charles River Laboratories and allowed to acclimate for a week. Animals were maintained on a 12 hour light-dark cycle. For intestinal tissue collection and evaluation of GI transit, rats were fasted for at least 18 hours before the experiment, with free access to water.
# The ability of opioids to delay GI transit in rats was tested by either administering 0 (vehicle) 0.25, 1 and 2.5 mg/kg of morphine or 0 (vehicle), 0.25, 2.5 and 5 mg/kg of methadone (1.5 ml/kg dose volume) by IP injection. Water served as vehicle control. Ten minutes later, a 2 mL charcoal meal consisting of 10% activated charcoal (Sigma-Aldrich, St. Louis, Mo.) and 10% gum Arabic (Sigma-Aldrich, St. Louis, Mo.) in water was administered via oral gavage. Rats were euthanized 10 min after the charcoal meal via IP injection of 150 mg/kg Beuthanasia-D solution (sodium pentobarbital, 390 mg/mL). The small intestine was removed and the total length from the pyloric sphincter to the ileocecal junction was recorded, as well as the distance traveled by the leading edge of the charcoal. Intestinal transit was determined by calculating the ratio (expressed as a percentage) of the distance between the pyloric sphincter and the leading edge of the charcoal to the distance between the pyloric sphincter and the ileocecal junction.
# To evaluate the ability of SP-333 to reverse methadone induced delayed GI transit, animals were administered 2.5 mg/kg of methadone by IP injection. Ten minutes later, an oral gavage of 0 (vehicle), 0.1, 0.5, 2.5, 5 and 50 mg/kg of SP-333 (1.5 ml/kg dose volume) was administered followed immediately by a 2 mL oral gavage of the charcoal meal. Ten minutes after the charcoal meal, animals were euthanized and intestinal transit was calculated as described above.
# [3] = tested on: rat jejunum tissue
# [4] = tested on: female Sprague-Dawley CD rats; experiment: methadone-induced constipation in rats (fecal output); assay type: in vivo, rat; details: methadone 2.5 mg/kg IP daily 9 days; SP-333 2.5, 5.0 and 10 mg/kg oral daily
# [5] = tested on: female Sprague-Dawley CD rats; experiment: as above; assay type: in vivo, rat
# Method: To identify the methadone dose that induces constipation in rats, female Sprague-Dawley CD rats 7 to 8 weeks of age (n=6/group) were administered 0 (vehicle), 2.5, 5, and 7.5 mg/kg of methadone (1.5 ml/kg dose volume) by IP injection once a day for 5 days. Fecal pellets were collected at 4 h intervals during the light cycle and average number of pellets was recorded for each group during the course of the study following daily dose administrations of methadone.
# To evaluate the ability of SP-333 to relieve methadone-induced constipation, female Sprague-Dawley CD rats 7 to 8 weeks of age (n=7/group) were administered 5 mg/kg of methadone (or vehicle) each day for 7 days via IP injection to induce constipation. Ten minutes following the IP dose each day, an oral gavage of 2.5, and 5 mg/kg of SP-333 or vehicle (buffer) was administered. Fecal pellets were collected at 4 h intervals during the light cycle and average number of pellets recorded for each group during the course of the study following daily administration of vehicle, methadone or combination of methadone and SP-333.
# [6] = randomized 4-week study in OIC: SP-333 plasma levels; assay type: in vivo, human; details: for level at 0.5 h / level at 1 h: human, plasma, 6 mg, SP-333: 6 mg, read-out: SP-333 concentration; for level at 0.5 h: time 30; for level at 1 h: time 60
# From the text: (§3) To assess the safety and tolerability of SP-333. To evaluate the pharmacodynamic effects of SP-333. To evaluate the pharmacokinetic properties of SP-333.
# [7] = tested on: T84 cells monolayer
# [8] = tested on: patients with symptoms of OIC treated for non-malignant chronic pain with opioid therapy; experiment: randomized 4-week placebo-controlled dose-ranging study in OIC: safety; assay type: in vivo, human; details: for All AEs: preliminary safety top line
# From the text: as §1, §3, §2
# [9] = 30 and/or 60 minute time points
smiles,measurement,setting,value
"CC(C)C[C@@H]1NC(=O)[C@H](CCC(=O)O)NC(=O)[C@@H](NC(=O)[C@H](CCC(=O)O)NC(=O)[C@H](CC(=O)O)NC(=O)[C@H](N)CC(N)=O)CSSC[C@@H]2NC(=O)[C@H](C)NC(=O)[C@H](C(C)C)NC(=O)[C@H](CC(N)=O)NC(=O)[C@H](C(C)C)NC(=O)[C@H](CSSC[C@@H](C(=O)N[C@H](CC(C)C)C(=O)O)NC(=O)CNC(=O)[C@H]([C@@H](C)O)NC2=O)NC1=O [SP-333, dAsn^1-Asp^2-Glu^3-Cys^4-Glu^5-Leu^6-Cys^7-Val^8-Asn^9-Val^10-Ala^11-Cys^12-Thr^13-Gly^14-Cys^15-dLeu^16] (H-[dN]DECELCVNVACTGC[dL]-OH; disulfide 4-12, 7-15)",primary endpoint (mean change from baseline in SBMs during Week 4),[1]; 3 mg and 6 mg doses,statistically significant improvement
same,"Week 4 change from baseline in SBMs, Difference from Placebo",[1]; SP-333 1 mg,0.613 SBMs/week
same,"Week 4 change from baseline in SBMs, LS Mean (SE)",[1]; SP-333 1 mg,2.436 (0.3800) SBMs/week
same,"Week 4 change from baseline in SBMs, Mean (SD)",[1]; SP-333 1 mg,2.429 (2.7363) SBMs/week
same,"Week 4 change from baseline in SBMs, Difference from Placebo",[1]; SP-333 3 mg,1.405 SBMs/week
same,"Week 4 change from baseline in SBMs, LS Mean (SE)",[1]; SP-333 3 mg,3.227 (0.3858) SBMs/week
same,"Week 4 change from baseline in SBMs, Mean (SD)",[1]; SP-333 3 mg,3.210 (3.8524) SBMs/week
same,"Week 4 change from baseline in SBMs, Difference from Placebo",[1]; SP-333 6 mg,1.528 SBMs/week
same,"Week 4 change from baseline in SBMs, LS Mean (SE)",[1]; SP-333 6 mg,3.351 (0.3919) SBMs/week
same,"Week 4 change from baseline in SBMs, Mean (SD)",[1]; SP-333 6 mg,3.379 (3.1424) SBMs/week
same,GI transit in methadone-treated rats,[2]; then SP-333 0.5 mg/kg oral gavage,40%
same,GI transit in methadone-treated rats,[2]; then SP-333 2.5 mg/kg oral gavage,39%
same,GI transit in methadone-treated rats,[2]; then SP-333 5 mg/kg oral gavage,44%
same,GI transit in methadone-treated rats,[2]; then SP-333 50 mg/kg oral gavage,52%
same,increase in Isc,[3]; 0.01-10 μM at mucosal surface of rat jejunum,concentration-dependent increase in Isc approaching saturation at 10 μM
same,stimulation of Isc,"[3]; treatment from the basolateral chamber, rat jejunum tissues",did not stimulate Isc
same,average number of pellets compared to the methadone dosed group,[4],higher compared to the methadone dosed group
same,pellet count compared to the methadone dosed group,"[5]; SP-333 2.5 mg/kg oral daily 10 min after methadone (5 mg/kg 7 days, then 2.5 mg/kg days 8-16)",threefold increase; also recorded: significantly relieved methadone-induced constipation
same,average number of pellets / fecal output compared to the methadone dosed group,"[5]; SP-333 2.5 and 5 mg/kg oral daily after methadone (5 mg/kg 7 days, then 2.5 mg/kg days 8-16)",partially restored fecal output; also recorded: higher compared to the methadone dosed group
same,maximum plasma level value observed,[6]; [9],2.71 ng/mL
same,number of patients in whom SP-333 plasma levels were observed,[6]; [9],4 patients
same,level at 0.5 h,"[6]; subject 006-004, visit week 1",2.71 ng/mL
same,level at 1 h,"[6]; subject 006-004, visit week 1",1.77 ng/mL
same,level at 0.5 h,"[6]; subject 007-013, visit week 1",1.38 ng/mL
same,level at 0.5 h,"[6]; subject 026-016, visit week 4",1.88 ng/mL
same,level at 1 h,"[6]; subject 026-016, visit week 4",1.5 ng/mL
same,level at 0.5 h,"[6]; subject 047-002, visit week 4",1.21 ng/mL
same,increase in Isc,[7]; 0.01-10 μM at mucosal surface of T84 cells,concentration-dependent increase in Isc approaching saturation at 10 μM
same,stimulation of Isc,"[7]; treatment from the basolateral chamber, T84 monolayer",did not stimulate Isc
same,Diarrhea,[8]; 1 mg (n 74),3 (4%) n (%)
same,Diarrhea Drop,[8]; 1 mg (n 74),0 (0%) n (%)
same,Drops for AE,[8]; 1 mg (n 74),1 (1.4%) n (%)
same,All AEs,[8]; 1 mg (n 74),19 (25.7%) n (%)
same,patients with TEAE leading to study treatment discontinuation,[8]; 1 mg group,1.4%
same,Diarrhea,[8]; 3 mg (n 70),4 (5.4%) n (%)
same,Diarrhea Drop,[8]; 3 mg (n 70),0 (0%) n (%)
same,Drops for AE,[8]; 3 mg (n 70),2 (2.9%) n (%)
same,serious adverse events: Chest Pain,[8]; 3 mg (n 70),1 (1.4%) n (%)
same,All AEs,[8]; 3 mg (n 70),16 (22.9%) n (%)
same,patients with TEAE leading to study treatment discontinuation,[8]; 3 mg group,2.9%
same,Diarrhea,[8]; 6 mg (n 72),7 (9.7%) n (%)
same,Diarrhea Drop,[8]; 6 mg (n 72),2 (2.9%) n (%)
same,Drops for AE,[8]; 6 mg (n 72),5 (6.9%) n (%)
same,serious adverse events: Death (metastatic HCC),[8]; 6 mg (n 72),1 (1.4%) n (%)
same,All AEs,[8]; 6 mg (n 72),23 (31.9%) n (%)
same,patients with TEAE leading to study treatment discontinuation,[8]; 6 mg group,6.9%
same,percentage of patients experiencing at least 1 TEAE,[8]; SP-333 1 mg (placebo 27.4%),25.7%
same,percentage of patients experiencing at least 1 TEAE,[8]; SP-333 3 mg (placebo 27.4%),22.9%
same,percentage of patients experiencing at least 1 TEAE,[8]; SP-333 6 mg (placebo 27.4%),31.9%
same,most frequently reported TEAE,[8]; in vivo,diarrhea
